Assay [1] deals with Candida tropicalis (BNCC340288). Description: microbe, parasite or virus in culture. The note with it: 24 h, read-out: MIC, C. tropical.
For assay [2], the system named is Candida parapsilosis (BNCC336015). Description: microbe, parasite or virus in culture. The note with it: Lodderomyces parapsilosis, 24 h, read-out: MIC, C. parapsilosis.

In brackets after ≈: the same amount, converted by molar mass.

As to `Clc1ccccc1C(c1ccccc1)(c1ccccc1)n1ccnc1` [clotrimazole], the MIC in assay [1] is 12.5 µM (≈ 4.31 µg/mL); in assay [2] it was 25 µM (≈ 8.62 µg/mL).

The record behind these values is paper PMC10935098 (Molecules, 2024).
